Drawing on US20110237566A1, “Therapeutic Macrolide Compounds and Their Use” (MERLION PHARMACEUTICALS PTE LTD, priority 2008, published 2011), this text covers half-life and IC50 for 27 molecules.

Usually IC50 stands for the point on the concentration scale where inhibition reaches its midpoint. Read a high IC50 as lower potency.

Series [1] in a line: Microsomal stability assay. Type of series: in vitro ADME. The settings on record: human, human liver microsomes, pH 7.4, human liver microsomes, 37° C.; for half-life at 50 μM: read-out: T1/2, 50 μm microsomal stability assay. The protocol: 50 μL test sample (50 mM), 25 μL human liver microsomes (20 mg/ml, BD Gentest, catalog no. 452161), 281 μL potassium phosphate buffer (100 mM, pH 7.4), 5 μL NaDPH regenerating system, solution B (BD Biosciences, catalog no. 451200), and 114 μL of water were pre-incubated for 5 min at 37° C. The reaction was initiated by the addition of 25 μL NaDPH regenerating system, solution A (BD Biosciences, catalog no. 451220). After an incubation period of 0, 15, 30, and 60 min at 37° C., 100 μL of the reaction mixture was transferred to an eppendorf tube, followed by addition of 100 μL chilled acetonitrile to quench the reaction. The sample was then centrifuged at 14,000 rpm for 5 min. The supernatant was submitted for LCMS analysis.

The test system of series [2] is A549 human alveolar epithelial cell. Nature of the series: Growth inhibition (cytotoxicity), A549 assay, Cell Titer Glo. Type of series: cell-based. The settings on record: A549, 72 h, A549 cells, 72 hour incubation. The protocol:
(§1) The cytotoxicity of each of the MC compounds as described herein was evaluated in the following cell types: A549 human alveolar epithelial cell, PC3 human prostate carcinoma cell, COLO205 human colon adenocarcinoma cell, HEPG2 human hepatoma, OVCAR3 human ovary adenocarcinoma cell, and HL60 human acute myelocytic leukemia (AML) cell.
(§2) A549, PC3, COLO205 and HEPG2 cells were cultured in DMEM (Invitrogen Corporation) with 10% fetal bovine serum, whereas OVCAR3 and HL60 were cultured in the same medium but with 20% fetal bovine serum. For cytotoxocoty measurements the cells were seeded in 96 or 384 well tissue culture treated microtitre plates overnight. Compounds were diluted in appropriate buffers and added to the cells the next day. Following a further 72 hour incubation, cell viability was determined using Cell Titer Glo (Promega Corporation) according to the manufacturers' instructions, and the luminescence measured in Luminoskan Ascent (Thermo Fisher Scientific Inc.).

For series [3], the system named is OVCAR3 human ovary adenocarcinoma cell. Nature of the series: Growth inhibition (cytotoxicity), OVCAR3 assay, Cell Titer Glo. Type of series: cell-based. The settings on record: Homo sapiens, OVCAR-3, 72 h, OVCAR3 cells, 72 hour incubation. The protocol: as §1, §2
(ATP-based viability assays read luminescence as a measure of living cells.)

In series [4] the test system is PC3 human prostate carcinoma cell. Nature of the series: Growth inhibition (cytotoxicity), PC3A assay, Cell Titer Glo. The settings on record: PC-3, 72 h, PC3 cells, 72 hour incubation. Type of series: cell-based. The protocol: as §1, §2
A short description of series [5]: Stability determination at PBS pH7.2. It is filed as physicochemical. The settings on record: PBS pH 7.2, pH 7.2, PBS pH7.2, 37° C.; read-out: T1/2, PBS buffer stability assay. The protocol:
Around 0.1 mg of the dried sample was placed in a 2-mL vial, added with 1 mL of PBS pH7.2 and then mixed using a Vortex mixer. The mixture was filtered through a 4 mm Nylon filter with 0.2 μm pore size and the filtrate collected in an hplc vial. The vial was placed in an hplc autosampler maintained at 37° C. just before injection (time=0 h). The stability of the sample was calculated by determining the amount left in solution at specific time intervals. This study was carried out in three trials with the buffer solution as a blank.

Take `CC[C@H](OC)[C@@H](C)[C@H]1O[C@@H]1C(NCCCN1CCOCC1)C(C)(O)/C=C/C=C(\C)C1OC(=O)C[C@H](O)CC[C@@](C)(O)[C@@H](OC(C)=O)/C=C/[C@@H]1C.O=CO` (single isomer, unassigned) [MC-009b]: the half-life at 50 μM in series [1] is more than 30 min. The molecule `CC[C@H](OC)[C@@H](C)[C@H]1O[C@@H]1C1C(Cc2ccccc2)C(=O)OC1(C)/C=C/C=C(\C)C1OC(=O)C[C@H](O)CC[C@@](C)(O)[C@@H](OC(C)=O)/C=C/[C@@H]1C` (single isomer, unassigned) [MC-012a] came in with a concentration for half-maximal inhibition (IC50) in series [2] not above 1 µM. In the case of `CC[C@H](OC)[C@@H](C)[C@H]1O[C@@H]1C(NCc1ccc(Br)cc1)C(C)(O)/C=C/C=C(\C)C1OC(=O)C[C@H](O)CC[C@@](C)(O)[C@@H](OC(C)=O)/C=C/[C@@H]1C.O=CO` (single isomer, unassigned) [MC-014b], the half-life at 50 μM in series [1] is more than 30 min. For the molecule `CC[C@H](OC)[C@@H](C)[C@H]1O[C@@H]1C(NCCc1ccc(Cl)cc1Cl)C(C)(O)/C=C/C=C(\C)C1OC(=O)C[C@H](O)CC[C@@](C)(O)[C@@H](OC(C)=O)/C=C/[C@@H]1C` (single isomer, unassigned) [MC-017b], the IC50 in series [2] is not above 1 µM. As to `CC[C@H](OC)[C@@H](C)[C@H]1O[C@@H]1C(NCc1c(Cl)cccc1Cl)C(C)(O)/C=C/C=C(\C)C1OC(=O)C[C@H](O)CC[C@@](C)(O)[C@@H](OC(C)=O)/C=C/[C@@H]1C` (single isomer, unassigned) [MC-018a], the IC50 in series [2] was not above 1 µM. `CC[C@H](OC)[C@@H](C)[C@H]1O[C@@H]1C(NCc1cccc(Cl)c1)C(C)(O)/C=C/C=C(\C)C1OC(=O)C[C@H](O)CC[C@@](C)(O)[C@@H](OC(C)=O)/C=C/[C@@H]1C` (single isomer, unassigned) [MC-027a] came in with an IC50 in series [2] not above 1 µM.

Turning to `CC[C@H](OC)[C@@H](C)[C@H]1O[C@@H]1C(NCc1ccc2c(c1)OCO2)C(C)(O)/C=C/C=C(\C)C1OC(=O)C[C@H](O)CC[C@@](C)(O)[C@@H](OC(C)=O)/C=C/[C@@H]1C.O=CO` (single isomer, unassigned) [MC-030a], in series [1], the half-life at 50 μM was more than 30 min. Moreover, the concentration for half-maximal inhibition (IC50) in series [3] and in series [4] was not above 0.1 µM throughout. The molecule `CC[C@H](OC)[C@@H](C)[C@H]1O[C@@H]1C(NCc1ccc(N2CCCNCC2)cc1)C(C)(O)/C=C/C=C(\C)C1OC(=O)C[C@H](O)CC[C@@](C)(O)[C@@H](OC(C)=O)/C=C/[C@@H]1C` (single isomer, unassigned) [MC-041a] yielded an IC50 in series [2] not above 1 µM.

`CC[C@H](OC)[C@@H](C)[C@H]1O[C@@H]1C(NCc1ccc2[nH]ccc2c1)C(C)(O)/C=C/C=C(\C)C1OC(=O)C[C@H](O)CC[C@@](C)(O)[C@@H](OC(C)=O)/C=C/[C@@H]1C.O=CO` (single isomer, unassigned) [MC-043a]: in series [1], the half-life at 50 μM is more than 30 min. In turn, `CC[C@H](OC)[C@@H](C)[C@H]1O[C@@H]1C(NCc1ccc(NC2CC2)cc1)C(C)(O)/C=C/C=C(\C)C1OC(=O)C[C@H](O)CC[C@@](C)(O)[C@@H](OC(C)=O)/C=C/[C@@H]1C` (single isomer, unassigned) [MC-044a] registered a 50% inhibitory concentration (IC50) in series [2] not above 1 µM. `CC[C@H](OC)[C@@H](C)[C@H]1O[C@@H]1C(NCc1ccc(Cl)nc1)C(C)(O)/C=C/C=C(\C)C1OC(=O)C[C@H](O)CC[C@@](C)(O)[C@@H](OC(C)=O)/C=C/[C@@H]1C.O=CO` (single isomer, unassigned) [MC-046a]: the half-life at 50 μM in series [1] is more than 30 min. `CC[C@H](OC)[C@@H](C)C1O[C@@H]1C(NCc1ccc(Cl)nc1)C(C)(O)/C=C/C=C(\C)[C@H]1OC(=O)C[C@H](O)CC[C@@](C)(O)[C@@H](OC(C)=O)/C=C/[C@@H]1C` (stereo in doubt) [MC-046]: the half-life at 0.1 mg/mL in series [5] is more than 30 min. Turning to `CC[C@H](OC)[C@@H](C)C1O[C@@H]1C(N(C)Cc1ccc(Cl)cc1)C(C)(O)/C=C/C=C(\C)[C@H]1OC(=O)C[C@H](O)CC[C@@](C)(O)[C@@H](OC(C)=O)/C=C/[C@@H]1C` (stereo in doubt) [MC-047], the half-life at 0.1 mg/mL in series [5] was more than 30 min. With `CC[C@H](OC)[C@@H](C)[C@H]1O[C@@H]1C(N(CCO)Cc1ccc2ccccc2c1)C(C)(O)/C=C/C=C(\C)[C@H]1OC(=O)C[C@H](O)CCC(C)(O)[C@@H](OC(C)=O)/C=C/[C@@H]1C` (stereo in doubt) [MC-051], the IC50 in series [2] was not above 1 µM. Turning to `CC[C@H](OC)[C@@H](C)[C@H]1O[C@@H]1C(N(CCO)Cc1ccc(C(F)(F)F)cc1)C(C)(O)/C=C/C=C(\C)[C@H]1OC(=O)C[C@H](O)CCC(C)(O)[C@@H](OC(C)=O)/C=C/[C@@H]1C` (stereo in doubt) [MC-053], in series [2], the concentration for half-maximal inhibition (IC50) is not above 1 µM. Consider `CC[C@H](OC)[C@@H](C)[C@H]1O[C@@H]1C(NCc1ccccc1)C(C)(/C=C/C=C(\C)[C@H]1OC(=O)C[C@H](O)CCC(C)(O)[C@@H](OC(C)=O)/C=C/[C@@H]1C)NCc1ccccc1` (stereo partly shown) [MC-001], for which the IC50 in series [2] is not above 1 µM.

On to `CC[C@H](OC)[C@@H](C)[C@H]1O[C@@H]1C(NCc1ccc(F)c(F)c1)C(C)(O)/C=C/C=C(\C)[C@H]1OC(=O)C[C@H](O)CC[C@@](C)(O)[C@@H](OC(C)=O)/C=C/[C@@H]1C.O=CO` (stereo partly shown) [MC-029], for which the half-life at 50 μM in series [1] is more than 30 min. Moreover, the IC50 in series [3] and in series [4] was not above 0.1 µM in each case. Consider `CC[C@H](OC)[C@@H](C)[C@H]1O[C@@H]1C(NCc1ccc2c(c1)OCO2)C(C)(O)/C=C/C=C(\C)C1OC(=O)C[C@H](O)CC[C@@](C)(O)[C@@H](OC(C)=O)/C=C/[C@@H]1C` (stereo partly shown) [MC-030], for which the half-life at 0.1 mg/mL in series [5] is more than 30 min. For `CC[C@H](OC)[C@@H](C)[C@H]1O[C@@H]1C(NCc1ccc(Cl)cc1F)C(C)(O)/C=C/C=C(\C)[C@H]1OC(=O)C[C@H](O)CC[C@@](C)(O)[C@@H](OC(C)=O)/C=C/[C@@H]1C.O=CO` (stereo partly shown) [MC-032], the half-life at 50 μM in series [1] was more than 30 min. Besides, the half-maximal inhibitory concentration (IC50) in series [3] and in series [4] was not above 0.1 µM in each case. As for `CC[C@H](OC)[C@@H](C)[C@H]1O[C@@H]1C(NCC1CCCCCC1)C(C)(O)/C=C/C=C(\C)[C@H]1OC(=O)C[C@H](O)CC[C@@](C)(O)[C@@H](OC(C)=O)/C=C/[C@@H]1C.O=CO` (stereo partly shown) [MC-034], in series [1] (5 μm, read-out: T1/2, 5 μm microsomal stability assay), the half-life at 5 μM amounted to 6.1 min. Also, the IC50 in series [2] is not above 1 µM.

In the case of `CC[C@H](OC)[C@@H](C)[C@H]1O[C@@H]1C(NCc1ccc(N2CCOCC2)cc1)C(C)(O)/C=C/C=C(\C)C1OC(=O)C[C@H](O)CC[C@@](C)(O)[C@@H](OC(C)=O)/C=C/[C@@H]1C` (stereo partly shown) [MC-037], in series [5], the half-life at 0.1 mg/mL is more than 30 min. For the molecule `CC[C@H](OC)[C@@H](C)[C@H]1O[C@@H]1C(NCc1ccc(N2CCOCC2)cc1)C(C)(O)/C=C/C=C(\C)C1OC(=O)C[C@H](O)CC[C@@](C)(O)[C@@H](OC(C)=O)/C=C/[C@@H]1C` (stereo partly shown) [MC-037d], the half-life at 50 μM in series [1] was more than 30 min. Regarding `CC[C@H](OC)[C@@H](C)[C@H]1O[C@@H]1C(NCc1ccc(N2CC(C)OC(C)C2)cc1)C(C)(O)/C=C/C=C(\C)C1OC(=O)C[C@H](O)CC[C@@](C)(O)[C@@H](OC(C)=O)/C=C/[C@@H]1C` (stereo partly shown) [MC-042c], the IC50 in series [2] is not above 1 µM. `CC[C@H](OC)[C@@H](C)[C@H]1O[C@@H]1C(NCc1ccc2[nH]ccc2c1)C(C)(O)/C=C/C=C(\C)C1OC(=O)C[C@H](O)CC[C@@](C)(O)[C@@H](OC(C)=O)/C=C/[C@@H]1C` (stereo partly shown) [MC-043]: the half-life at 0.1 mg/mL in series [5] is more than 30 min.

In series [2], `CC[C@H](OC)[C@@H](C)[C@H]1O[C@@H]1C(NCc1ccc2[nH]ccc2c1)C(C)(O)/C=C/C=C(\C)C1OC(=O)C[C@H](O)CC[C@@](C)(O)[C@@H](OC(C)=O)/C=C/[C@@H]1C` (stereo partly shown) [MC-043c] yielded a half-maximal inhibitory concentration (IC50) not above 1 µM. `CC[C@H](OC)[C@@H](C)[C@H]1O[C@@H]1C(N(CCCO)Cc1ccc(Cl)cc1)C(C)(O)/C=C/C=C(\C)[C@H]1OC(=O)C[C@H](O)CC[C@@](C)(O)[C@@H](OC(C)=O)/C=C/[C@@H]1C` (stereo partly shown) [MC-045] yielded a half-inhibitory concentration (IC50) in series [2] not above 1 µM. In the case of `CC[C@H](OC)[C@@H](C)[C@H]1O[C@@H]1C(NS(=O)(=O)c1ccc(F)c(F)c1)C(C)(O)/C=C/C=C(\C)C1OC(=O)C[C@H](O)CCC(C)(O)[C@@H](OC(C)=O)/C=C/[C@@H]1C` (stereo partly shown) [MC-58b], the IC50 in series [2] is not above 1 µM.
